Laboratory results reported in paper PMC5078025, “Necrosis-inducing peptide has the beneficial effect on killing tumor cells through neuropilin (NRP-1) targeting” (Oncotarget, 2016).
Bridge positions count the residues as written; N and C are the ends. Ends that are not written are not given here. Peptide text beside a SMILES is read from it.

Experiments:
[1] = system: BALB/c mice; experiment: Toxicity and movement activity after i.v. injection; conditions: for Movement Activities: BALB/c (around 20 gm) mice, i.v. single dose 75 μl of 1 mM, within 30 minutes; for toxicity by mouse movements: BALB/c mice, i.v. single dose 75 μl of 1 mM per mouse, movements within 30 minutes, observed up to one week
Description: To design a MTD peptide anti-cancer drug, the MTD peptide was fused to various known tumor-homing motifs through its N-terminal or C-terminal region, and a linker was introduced between these two motifs to impart flexibility and minimize steric hindrance (Figure 1A, Supplementary Table S1). The MTD peptides fused with tumor-homing motifs (hereafter designated TU:MTDs) were synthesized as linear or cyclic entities using L-amino acids (Supplementary Table S1), and were evaluated for their killing activity using CT26 cells in vitro (Supplementary Figure S1). […] Thus, BALB/c mouse movements were also evaluated within 30 minutes of the intravenous injection of a single dose of 75 μl of 1 mM TU:MTDs per mouse. […] We also searched for a TU:MTD with a potent in vivo effect by observing tumor volumes in three BALB/c mice bearing CT26 adenocarcinoma that were injected with 100 μl of 1 mM TU:MTDs per day for 2 or 3 consecutive days (Figure 1B). […] The tumor-homing motif of TU17:MTD has a “RPARPAR” sequence containing the C-end rule (CendR) element that has known to bind to neuropilin-1 (NRP-1), although the “RPARPAR” sequence is located at the N-terminus of the MTD rather than at the C-terminus. […]
1 mM) were i.v. injected into BALB/c (around 20 gm) mice at a single dose. “Slow” means not moving around in the cage.
“Normal” means normally moving around in the cage. “Toxic” means necrosis in tail vein within 2 ~ 3 days after injection.
(§1) Abbreviation: NR; no regression, ND; not determined. […]

[2] = system: CT26 cells; experiment: XTT cell viability / killing activity in CT26 cells; assay type: cell-based; conditions: CT26 cells, TU:MTDs 0 ~ 20 μM, 30 minutes, XTT
Description: Figure 1 Identification of TU17:MTD as a tumor targeting peptide (A) Schematic diagram of the fusion peptides consisting of the tumor-homing motif, linker, and mitochondrial targeting domain (MTD). (B) Tumors were generated over 2 weeks after s.c. injection of CT26 cells into the backs of BALB/c mice. When tumor volumes reached palpable size, the indicated TU:MTDs (100 μl of 1 mM TU:MTDs) or PBS were administrated i.v. twice or three times. […] Arrows indicate the points of peptide injection. P values < 0.02 (control group vs TU17:MTD at day 5, 6, 7, 8, and 9) (C) HCT116, HeLa, A549, MCF-7, PC3, and BJAB cells were treated with TU17:MTD (0 ~ 20 μM) for 30 minutes, and cell viability was monitored using XTT assays. *P < 0.05 (D) Primary splenocytes and macrophages were treated with TU17:MTD (0 ~ 20 μM) for 30 minutes, and cell viability was monitored by XTT assay. *P < 0.05 (E) CT26 cells were treated with R8:MTD, TU17:MTD, TU17-2:MTD or TU17:MTD^4A (0 ~ 40 μM) for 4 hours, and cell viability was monitored by XTT assay. Results in C to E are expressed as means ± SD (triplicates), and are representative of at least two independent experiments. P values are for experimental groups versus controls and were calculated using Dunnett's t-test. *P < 0.05.
Figure 5 Anti-NRP-1 antibody blocks TU17:MTD-induced necrosis (A) CT26 cells (2 × 10^4 cells/cm^2) were treated with TU17:MTD-FAM (500 nM) peptide or TU17^mut:MTD (500 nM) peptide. […] The viability was measured by using the XTT assay. *P < 0.05, **P < 0.01. […] The percentage of FAM-positive cells (%) were determined (n = over 200 cells). *P < 0.05, ***P < 0.001.
Cells were cultured in 96 well plates (2 × 10^5) overnight and treated with TU:MTDs. Cell viabilities were assessed using a XTT-based colorimetric assay kit, according to the manufacturer's instructions. […]
Supplementary FigureS1: Killing activity of TU:MTDs in CT26 cells. CT26 cells were treated with TU:MTDs (0 ~ 20 μM) for 30 minutes, and cell viability was monitored using XTT assays. […]

[3] = Serum AST and ALT assays; assay type: in vivo, mice
Description: To assay the activities of ALT and AST, mouse serum was prepared by centrifuging blood at 2500 × g for 15 minutes at 4°C. Enzyme activities were determined, according to the manufacturer's instructions. […]
the first injection of the peptides. […]
necrosis in tail vein upon injection.
“Slow” means not moving around in the cage.
“Normal” means normally moving around in the cage.
as §1
aminotransferase) in mice treated with TU17:MTD
Treatment Serum aminotransferase (karman units/ml)
White blood Hemoglobin Platelets Neutrophils Lymphocyts Monocytes
Treatments cells (g/dl) (×103 cell/μl) (%) (%) (%)

[4] = system: various tumor cells; conditions: four leucine residues of MTD replaced by alanine; cited from earlier work
Text: We reported a 10-residue long, pro-necrotic peptide derived from the mitochondrial targeting domain (MTD) located in the C-terminal region of Noxa, a BH-3 only protein of Bcl-2 family. The MTD region of Noxa is responsible not only for mitochondrial targeting of Noxa but also for mitochondrial fragmentation induced by Noxa. Two […]) in the region of MTD play a key role in mitochondrial fragmentation induced by Noxa. […] Therefore, we determined whether TU17:MTD could discriminate tumor and normal cells in vitro.

[5] = CCl4-treated mice, chemically-induced liver damage model

Molecule	Movement Activities [1]	toxicity by mouse movements [1]	also measured
KLLNLISKLFGGRPARPAR [TU18:MTD]	Slow	toxic	
CC[C@H](C)[C@H](NC(=O)[C@H](CC(C)C)NC(=O)[C@H](CC(N)=O)NC(=O)[C@H](CC(C)C)NC(=O)[C@H](CC(C)C)NC(=O)[C@H](CCCCN)NC(=O)CNC(=O)CNC(=O)[C@H](CS)NC(=O)[C@H](CCCNC(=N)N)NC(=O)CNC(=O)[C@H](CC(N)=O)NC(=O)[C@@H](N)CS)C(=O)N[C@@H](CO)C(=O)N[C@@H](CCCCN)C(=O)N[C@@H](CC(C)C)C(=O)N[C@@H](Cc1ccccc1)C(=O)O [TU1:MTD] (H-CNGRCGGKLLNLISKLF-OH)	Slow	toxic	
CC[C@H](C)[C@H](NC(=O)[C@H](CC(C)C)NC(=O)[C@H](CC(N)=O)NC(=O)[C@H](CC(C)C)NC(=O)[C@H](CC(C)C)NC(=O)[C@@H](N)CCCCN)C(=O)N[C@@H](CO)C(=O)N[C@@H](CCCCN)C(=O)N[C@@H](CC(C)C)C(=O)N[C@@H](Cc1ccccc1)C(=O)N[C@@H](CS)C(=O)NCC(=O)N[C@@H](CCCNC(=N)N)C(=O)N[C@@H](CC(=O)O)C(=O)N[C@@H](CCCCN)C(=O)N[C@@H](CCCNC(=N)N)C(=O)N[C@@H](CC(C)C)C(=O)N[C@@H](Cc1ccc(O)cc1)C(=O)N[C@@H](CC(=O)O)C(=O)N[C@@H](CS)C(=O)O [TU8:MTD] (H-KLLNLISKLFCGRDKRLYDC-OH)	Dead	highly toxic	cytotoxicity to CT26 cells in vitro [2]: not cytotoxic
CRGDKGGKLLNLISKLF [TU21:MTD]	Slow	toxic	
WDLAWMFRLPVGKLLNLISKLF [TU5:MTD]	Normal	no apparent toxicities	
KLLNLISKLFGGCGKRK [TU20:MTD]	Normal	no apparent toxicities	
ClC(Cl)(Cl)Cl [CCl4]			Serum aminotransferase ALT [3, 5]: 558.8 ± 7.2 karman units/ml; Serum aminotransferase AST [3, 5]: 42.8 ± 3.7 karman units/ml; serum levels of AST and ALT ([3]; mice): substantially higher
CGKRKGGKLLNLISKLF [TU19:MTD]	Normal	no apparent toxicities	
CC[C@H](C)[C@H](NC(=O)[C@H](CC(C)C)NC(=O)[C@H](CC(N)=O)NC(=O)[C@H](CC(C)C)NC(=O)[C@H](CC(C)C)NC(=O)[C@H](CCCCN)NC(=O)CNC(=O)CNC(=O)[C@H](CS)NC(=O)CNC(=O)[C@H](CCCNC(=N)N)NC(=O)[C@@H](NC(=O)[C@H](CCCNC(=N)N)NC(=O)[C@H](CCCCN)NC(=O)[C@H](CC(N)=O)NC(=O)CNC(=O)[C@@H](N)CS)[C@@H](C)O)C(=O)N[C@@H](CO)C(=O)N[C@@H](CCCCN)C(=O)N[C@@H](CC(C)C)C(=O)N[C@@H](Cc1ccccc1)C(=O)O [TU3:MTD] (H-CGNKRTRGCGGKLLNLISKLF-OH)	Normal	no apparent toxicities	
KLLNLISKLFCRGDKGPDC (disulfide 11-19 (inferred)) [TU10:MTD]	Slow	toxic	
KLLNLISKLF [MTD]			killing activity and mitochondrial targeting activity [4]: abolishes the killing activity and mitochondrial targeting activity
CC[C@H](C)[C@H](NC(=O)[C@H](CC(C)C)NC(=O)[C@H](CC(N)=O)NC(=O)[C@H](CC(C)C)NC(=O)[C@H](CC(C)C)NC(=O)[C@H](CCCCN)NC(=O)[C@H](CS)NC(=O)[C@H](CC(=O)O)NC(=O)[C@@H]1CCCN1C(=O)CNC(=O)[C@H](CCCCN)NC(=O)[C@H](CC(=O)O)NC(=O)[C@H](CCCNC(=N)N)NC(=O)CNC(=O)[C@@H](N)CS)C(=O)N[C@@H](CO)C(=O)N[C@@H](CCCCN)C(=O)N[C@@H](CC(C)C)C(=O)N[C@@H](Cc1ccccc1)C(=O)O [TU6:MTD] (H-CGRDKGPDCKLLNLISKLF-OH)	Normal	no apparent toxicities	
RLLRLLRLLRGGKLLNLISKLF [TU15:MTD]	Slow	toxic	
CC[C@H](C)[C@H](NC(=O)[C@H](CC(C)C)NC(=O)[C@H](CC(N)=O)NC(=O)[C@H](CC(C)C)NC(=O)[C@H](CC(C)C)NC(=O)[C@H](CCCCN)NC(=O)[C@H](CS)NC(=O)[C@H](CC(=O)O)NC(=O)[C@@H]1CCCN1C(=O)CNC(=O)[C@H](CCCCN)NC(=O)[C@H](CC(=O)O)NC(=O)CNC(=O)[C@H](CCCNC(=N)N)NC(=O)[C@@H](N)CS)C(=O)N[C@@H](CO)C(=O)N[C@@H](CCCCN)C(=O)N[C@@H](CC(C)C)C(=O)N[C@@H](Cc1ccccc1)C(=O)O [TU9:MTD] (H-CRGDKGPDCKLLNLISKLF-OH)	Normal	no apparent toxicities	
CC[C@H](C)[C@H](NC(=O)[C@H](CC(C)C)NC(=O)[C@H](CC(N)=O)NC(=O)[C@H](CC(C)C)NC(=O)[C@H](CC(C)C)NC(=O)[C@@H](N)CCCCN)C(=O)N[C@@H](CO)C(=O)N[C@@H](CCCCN)C(=O)N[C@@H](CC(C)C)C(=O)N[C@@H](Cc1ccccc1)C(=O)N[C@@H](CS)C(=O)NCC(=O)N[C@@H](CCCNC(=N)N)C(=O)N[C@@H](CC(=O)O)C(=O)N[C@@H](CCCCN)C(=O)NCC(=O)N1CCC[C@H]1C(=O)N[C@@H](CC(=O)O)C(=O)N[C@@H](CS)C(=O)O [TU7:MTD] (H-KLLNLISKLFCGRDKGPDC-OH)		no apparent toxicities	
WIFPWIQLKLLNLISKLF [TU4:MTD]	Slow	toxic	
KLLNLISKLFGGRLLRLLRLLR [TU16:MTD]	Normal	no apparent toxicities	
KLLNLISKLFGGCRGDK [TU22:MTD]	Normal	no apparent toxicities	
